Eleven compounds from patent US8969554B2, “6-acyl-1,2,4-triazine-3,5-dione derivative and herbicides” (Kumiai Chemical Industry Co., Ltd., priority 2010, dated 2015) can be followed below.

Assay type in all cases: in vivo
Experiment [1] concerns A. retroflexus. Nature of the experiment: Herbicidal activity by field soil treatment (Test example 2). Also noted: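 index 0 to 10 in 10% steps of herbicidal effect with 10 meaning complete death and 0 below 10%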. The note with it: 1000 g effective component per hectare, day 21 after the treatment. The procedure, abridged:
(§1)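 Seeds were sown in field soil in 80 cm^2 pots and covered with soil. A water-diluted wettable powder was then sprayed onto the soil surface at 1000 liters per hectare, delivering 1000 g active ingredient per hectare. Plants grew in a greenhouse, and herbicidal effect was scored against set criteria 21 days after treatment.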

Experiment [2] deals with Indian millet. The experiment is described as above. The arrangement: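 index 0 to 10 in 10% steps of herbicidal effect with 10 meaning complete death and 0 below 10%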. To be noted: 1000 g effective component per hectare, day 21 after the treatment. Put shortly: as §1
Experiment [3] concerns Echinochloa crus-galli. The experiment is described as above. The arrangement: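 index 0 to 10 in 10% steps of herbicidal effect with 10 meaning complete death and 0 below 10%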. To be noted: 1000 g effective component per hectare, day 21 after the treatment. Put shortly:
as §1

Experiment [4] concerns Echinochloa crus-galli. As to the kind of experiment: Herbicidal activity by field foliage treatment (Test example 3). Also noted: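 index 0 to 10 in 10% steps of herbicidal effect with 10 meaning complete death and 0 below 10%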. The note with it: 1000 g effective component per hectare, day 14 after the treatment. Put shortly: (§2)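 Potted field-soil plants grown 2 weeks in a greenhouse were sprayed over the whole foliage with diluted wettable powder at 1000 L/ha, delivering 1000 g active ingredient per hectare. Herbicidal effect scored by visual criteria 14 days after treatment.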

Experiment [5] deals with Echinochloa oryzicola. As to the kind of experiment: Herbicidal activity by paddy field soil treatment (Test Example 1). Also noted: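 index 0 to 10 in 10% steps of herbicidal effect with 10 meaning complete death and 0 below 10%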. The note with it: 1000 g of effective component per hectare, evaluated on day 21 after the treatment, criteria of Table 72. Put shortly:
(§3)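 Seeds were sown in puddled paddy soil in pots flooded to 3 cm water depth; the next day a water-diluted wettable powder was applied to the water surface at 1000 g active ingredient/ha. Plants were grown in a greenhouse and herbicidal effect scored by graded criteria on day 21 after treatment.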

Experiment [6] deals with Scirpus juncoides Rocxb. The experiment is described as above. Also noted: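 index 0 to 10 in 10% steps of herbicidal effect with 10 meaning complete death and 0 below 10%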. The note with it: applied on water surface, 1000 g of effective component per hectare, day 21 after the treatment. The procedure, abridged: as §3
Experiment [7] deals with Monochoria vaginalis. The description is as above. Also noted: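 index 0 to 10 in 10% steps of herbicidal effect with 10 meaning complete death and 0 below 10%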. To be noted: 1000 g of effective component per hectare, evaluated on day 21 after the treatment, criteria of Table 72. Put shortly: as §3
For experiment [8], the system named is foxtail. As to the kind of experiment: Herbicidal activity by field soil treatment (Test example 2). The note with it: 1000 g effective component per hectare, day 21 after the treatment. As for the experimental part:
[table] Test for Determining Herbicidal Activity by Field Soil Treatment A 80 cm^2 wide plastic pot was filled with a field soil and seeds of each of Echinochloa crus-galli, foxtail, Indian millet, and A. retroflexus were sowed and then covered with soil. The wettable powder produced with reference to the Formulation example 1 was diluted water, and applied on the soil surface by using a small sprayer in an amount of 1000 liters per hectare so that the effective component is 1000 g per hectare. After that, the plants were cultivated in a greenhouse, and on day 21 after the treatment, evaluation was made by the criteria described in Table 72 for determining the herbicidal effects.

Experiment [9] relates to A. retroflexus. Nature of the experiment: Herbicidal activity by field foliage treatment (Test example 3). The arrangement: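 index 0 to 10 in 10% steps of herbicidal effect with 10 meaning complete death and 0 below 10%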. To be noted: 1000 g effective component per hectare, day 14 after the treatment. The procedure, abridged:
(§4)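 Plants were grown from seed in field soil in a greenhouse for 2 weeks, then sprayed over the whole foliage with a water-diluted wettable powder at 1000 L/ha spray volume, delivering 1000 g active ingredient per hectare. Herbicidal effect was scored on day 14 after treatment.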

Experiment [10] concerns Indian millet. Described as above. Also noted: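 index 0 to 10 in 10% steps of herbicidal effect with 10 meaning complete death and 0 below 10%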. To be noted: 1000 g effective component per hectare, day 14 after the treatment. Put shortly:
as §4

For experiment [11], the system named is Setaria viridis. Described as above. To be noted: 1000 g effective component per hectare, day 14 after the treatment. Put shortly: as §2

Molecules are shown by their SMILES.
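For herbicidal effect index, Setaria viridis in this document: index 0 to 10 in 10% steps of herbicidal effect with 10 meaning complete death and 0 below 10%.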

As to `COc1c(Cl)cc(-n2c(=O)c(C(=O)C3=C(O)CCCC3=O)nn(C)c2=O)cc1Cl` [I-299], the “herbicidal effect index, Amaranthus retroflexus” value in [1] and in experiment [9] was 10 throughout. Further, the “herbicidal effect index, Abutilon theophrasti” value in [2] was 10; in experiment [10] it was 9. For the same compound, the “herbicidal effect index, Echinochloa crus-galli” value came to 9 in [3] and 8 in [4]. Besides, the “Herbicidal effects index number, Echinochloa oryzicola” value in [5] is on record as 10. For the same compound, in experiment [6], the “herbicidal effect index, S. juncoides Rocxb.” value came out at 10. In experiment [7], the “Herbicidal effects index number, Monochoria vaginalis” value is 10. For the same compound, the “herbicidal effect index, Setaria viridis” value in [8] was determined as 10.
On to `COc1cccc(OC)c1-n1c(=O)c(C(=O)C2=C(O)CCCC2=O)nn(C)c1=O` [Compound I-98], for which the “herbicidal effect index, Abutilon theophrasti” value in [2] is reported as 7; in experiment [10] it was 9. For the same compound, the “herbicidal effect index, Echinochloa crus-galli” value in experiment [3] and in experiment [4] was 7 throughout. In addition, the “herbicidal effect index, Setaria viridis” value in experiment [8] is 7. Besides, the “herbicidal effect index, Amaranthus retroflexus” value in experiment [9] turned out to be 8.
Regarding `CC(C)n1nc(C(=O)C2=C(O)CCCC2=O)c(=O)n(-c2ccccc2)c1=O` [I-260], the “herbicidal effect index, Amaranthus retroflexus” value in experiment [1] and in experiment [9] was 10 throughout. For the same compound, the “herbicidal effect index, Abutilon theophrasti” value in experiment [2] and in experiment [10] was 10 throughout. For the same compound, the “herbicidal effect index, Echinochloa crus-galli” value in [3] was 10; in [4], 8. In addition, in [5], the “Herbicidal effects index number, Echinochloa oryzicola” value came to 10. The “herbicidal effect index, S. juncoides Rocxb.” value in [6] came to 10. The “Herbicidal effects index number, Monochoria vaginalis” value in experiment [7] is listed as 10. For the same compound, in experiment [8], the “herbicidal effect index, Setaria viridis” value was determined as 5.
For the compound `Cc1ccc(-n2c(=O)c(C(=O)C3=C(O)CCCC3=O)nn(C)c2=O)cc1C` [I-87], the figures for the “herbicidal effect index, Amaranthus retroflexus” value in experiment [1] and in experiment [9] were 9 and 10, respectively. Also, the “herbicidal effect index, Abutilon theophrasti” value in experiment [2] and in [10] was 9 throughout. In addition, the “herbicidal effect index, Echinochloa crus-galli” value in experiment [3] and in experiment [4] was 9 in each case. Besides, the “Herbicidal effects index number, Echinochloa oryzicola” value in experiment [5] is 9. For the same compound, in [6], the “herbicidal effect index, S. juncoides Rocxb.” value was found to be 10. The “Herbicidal effects index number, Monochoria vaginalis” value in experiment [7] stood at 10. Besides, the “herbicidal effect index, Setaria viridis” value in [8] worked out at 6.
Consider `Cn1nc(C(=O)C2=C(O)CCCC2=O)c(=O)n(CC(=O)OC(C)(C)C)c1=O` [I-294], for which the “herbicidal effect index, Amaranthus retroflexus” value in experiment [1] came out at 10; in experiment [9] it was 8. Further, the “herbicidal effect index, Abutilon theophrasti” value in experiment [2] amounted to 9; in experiment [10] it was 7. Further, the “herbicidal effect index, Echinochloa crus-galli” value in [3] and in experiment [4] was 9 in each case. Further, in experiment [5], the “Herbicidal effects index number, Echinochloa oryzicola” value was found to be 9. Moreover, in experiment [6], the “herbicidal effect index, S. juncoides Rocxb.” value came out at 9. Moreover, the “Herbicidal effects index number, Monochoria vaginalis” value in [7] amounted to 9. In [8], the “herbicidal effect index, Setaria viridis” value is listed as 7.
For the compound `COc1cc(-n2c(=O)c(C(=O)C3=C(O)CCCC3=O)nn(C)c2=O)ccc1Cl` [I-131], the “herbicidal effect index, Amaranthus retroflexus” value in experiment [1] and in experiment [9] was 10 throughout. Further, the figures for the “herbicidal effect index, Abutilon theophrasti” value in experiment [2] and in experiment [10] were 9 and 10, respectively. The “herbicidal effect index, Echinochloa crus-galli” value in experiment [3] turned out to be 9; in [4] it was 10. Moreover, the “Herbicidal effects index number, Echinochloa oryzicola” value in experiment [5] amounted to 9. Further, the “herbicidal effect index, S. juncoides Rocxb.” value in experiment [6] was 10. Besides, the “Herbicidal effects index number, Monochoria vaginalis” value in experiment [7] stood at 10. In experiment [8], the “herbicidal effect index, Setaria viridis” value is listed as 7.
Turning to `COc1ccc(-n2c(=O)c(C(=O)C3=C(O)CCCC3=O)nn(C)c2=O)cc1F` [I-99], the “herbicidal effect index, Amaranthus retroflexus” value in [1] and in [9] was 10 each time. Further, the “herbicidal effect index, Abutilon theophrasti” value in experiment [2] is reported as 9; in experiment [10], 10. In addition, the “herbicidal effect index, Echinochloa crus-galli” value in [3] is reported as 8; in experiment [4] it was 9. Also, the “Herbicidal effects index number, Echinochloa oryzicola” value in experiment [5] is recorded as 10. Besides, the “herbicidal effect index, S. juncoides Rocxb.” value in experiment [6] came to 10. Besides, the “Herbicidal effects index number, Monochoria vaginalis” value in experiment [7] was 10. The “herbicidal effect index, Setaria viridis” value in [8] turned out to be 6.
Take `Cc1cc(I)ccc1-n1c(=O)c(C(=O)C2=C(O)CCCC2=O)nn(C)c1=O` [I-283]: the “herbicidal effect index, Amaranthus retroflexus” value in experiment [1] is 10; in experiment [9], 8. The figures for the “herbicidal effect index, Abutilon theophrasti” value in experiment [2] and in [10] were 9 and 8, respectively. Besides, the entries for the “herbicidal effect index, Echinochloa crus-galli” value in [3] and in [4] were 9 and 8, respectively. The “Herbicidal effects index number, Echinochloa oryzicola” value in experiment [5] is given as 10. Also, in experiment [6], the “herbicidal effect index, S. juncoides Rocxb.” value was found to be 10. Further, in experiment [7], the “Herbicidal effects index number, Monochoria vaginalis” value is given as 10. In addition, the “herbicidal effect index, Setaria viridis” value in experiment [8] is recorded as 8.
As for `Cn1nc(C(=O)C2=C(O)CCCC2=O)c(=O)n(-c2cccc(-c3ccccc3)c2)c1=O` [I-270], the “herbicidal effect index, Amaranthus retroflexus” value in experiment [1] and in [9] was 10 throughout. In addition, the “herbicidal effect index, Echinochloa crus-galli” value in experiment [3] was 8; in experiment [4], 9. In experiment [5], the “Herbicidal effects index number, Echinochloa oryzicola” value amounted to 8. The “herbicidal effect index, S. juncoides Rocxb.” value in experiment [6] was found to be 8. For the same compound, the “Herbicidal effects index number, Monochoria vaginalis” value in [7] stood at 8. Also, in experiment [8], the “herbicidal effect index, Setaria viridis” value stood at 7. Besides, the “herbicidal effect index, Abutilon theophrasti” value in experiment [10] stood at 9.
As to `Cn1nc(C(=O)C2=C(O)CCCC2=O)c(=O)n(-c2ccc(Cl)nc2)c1=O` [I-280], the “herbicidal effect index, Amaranthus retroflexus” value in experiment [1] and in experiment [9] was 10 throughout. In addition, the “herbicidal effect index, Abutilon theophrasti” value in experiment [2] and in experiment [10] was 9 each time. The “herbicidal effect index, Echinochloa crus-galli” value in [3] and in experiment [4] was 9 in each case. Further, the “Herbicidal effects index number, Echinochloa oryzicola” value in [5] amounted to 10. The “herbicidal effect index, S. juncoides Rocxb.” value in experiment [6] is 10. The “Herbicidal effects index number, Monochoria vaginalis” value in experiment [7] was 10. In addition, in experiment [8], the “herbicidal effect index, Setaria viridis” value amounted to 8.
Turning to `CC(CCn1c(=O)c(C(=O)C2=C(O)CCCC2=O)nn(C)c1=O)=C(F)F` [I-27], the “herbicidal effect index, Amaranthus retroflexus” value in experiment [1] amounted to 10; in [9], 9. Further, the results for the “herbicidal effect index, Abutilon theophrasti” value in experiment [2] and in [10] were 10 and 9, respectively. Moreover, the “herbicidal effect index, Echinochloa crus-galli” value was found to be 10 in experiment [3] and 9 in [4]. For the same compound, the “Herbicidal effects index number, Echinochloa oryzicola” value in experiment [5] is 10. Also, the “herbicidal effect index, S. juncoides Rocxb.” value in [6] is given as 10. Further, the “Herbicidal effects index number, Monochoria vaginalis” value in experiment [7] is 10. Besides, the “herbicidal effect index, Setaria viridis” value in experiment [11] is reported as 6.
